# Experimental data reported in publication PMC9090415, “Discovery of small molecule inhibitors of Plasmodium falciparum apicoplast DNA polymerase” (Journal of Enzyme Inhibition and Medicinal Chemistry, 2022).
# Target: P. falciparum apicoplast DNA polymerase (Pf-apPOL) (Plasmodium falciparum, UniProt Q8ILY1)
# Experiment: Fluorescence-based high-throughput DNA polymerase assay (molecular beacon), primary screen and dose-response;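 for % inhibition ApPOL 90': test concentration in µM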;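 for % inhibition apPOL 180': test concentration in µM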
# Assay type: biochemical
# Summary of the method: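 Single-point screening used 10 µM compound with 20 nM polymerase, 20 nM hairpin substrate and 6 µM dNTPs for 90 min at 25 °C. Confirmatory titrations (2.5–80 µM) followed fluorescence at three times, and IC50 was derived from a fit including a cooperativity term n.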
# P. falciparum apicoplast DNA polymerase (Pf-apPOL), sequence (Q8ILY1 entry or part of it): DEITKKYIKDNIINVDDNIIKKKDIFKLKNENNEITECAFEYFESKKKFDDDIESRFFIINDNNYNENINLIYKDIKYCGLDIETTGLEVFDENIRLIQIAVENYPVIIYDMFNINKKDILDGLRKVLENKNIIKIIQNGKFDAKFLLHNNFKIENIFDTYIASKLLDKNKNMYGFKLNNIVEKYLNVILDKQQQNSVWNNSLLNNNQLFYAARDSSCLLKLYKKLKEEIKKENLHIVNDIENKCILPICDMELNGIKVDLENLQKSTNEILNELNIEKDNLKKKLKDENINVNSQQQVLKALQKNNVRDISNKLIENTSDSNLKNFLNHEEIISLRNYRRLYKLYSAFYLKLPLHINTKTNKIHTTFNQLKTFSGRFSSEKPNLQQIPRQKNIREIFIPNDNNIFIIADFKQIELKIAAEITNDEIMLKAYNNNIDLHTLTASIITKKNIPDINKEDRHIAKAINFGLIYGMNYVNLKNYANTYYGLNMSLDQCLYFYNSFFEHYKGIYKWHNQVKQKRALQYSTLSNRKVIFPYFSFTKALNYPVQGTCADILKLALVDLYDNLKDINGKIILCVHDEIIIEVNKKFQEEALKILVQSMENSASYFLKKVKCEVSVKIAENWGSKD
compound,measurement,setting,value
"CC(C)(C)c1cc(C(=O)C(C#N)=NNc2cccc(Cl)c2)no1 [Molecule 98, N#CC(=NNc1cccc(c1)Cl)C(=O)c1noc(c1)C(C)(C)C]",DNA Pol,"'DNA Pol' of the 186 hits list (primary screen result); unit not given; 90 min, 10 µM",96
same,% inhibition Apo pol 10',DRC-1; 10'; concentration 2.5,10.7073%
same,% inhibition Apo pol 10',DRC-1; 10'; concentration 5,31.7551%
same,% inhibition Apo pol 10',DRC-1; 10'; concentration 10,51.803%
same,% inhibition Apo pol 10',DRC-1; 10'; concentration 20,87.204%
same,% inhibition Apo pol 10',DRC-1; 10'; concentration 40,82.704%
same,% inhibition Apo pol 10',DRC-1; 10'; concentration 80,96.4114%
same,% inhibition Apol 90',DRC-1; 90'; concentration 2.5,12.918%
same,% inhibition Apol 90',DRC-1; 90'; concentration 5,31.5705%
same,% inhibition Apol 90',DRC-1; 90'; concentration 10,54.1185%
same,% inhibition Apol 90',DRC-1; 90'; concentration 20,87.0322%
same,% inhibition Apol 90',DRC-1; 90'; concentration 40,80.829%
same,% inhibition Apol 90',DRC-1; 90'; concentration 80,96.7924%
same,% inhibition apPOL 180',DRC-1; 180'; concentration 2.5,9.726%
same,% inhibition apPOL 180',DRC-1; 180'; concentration 5,23.8574%
same,% inhibition apPOL 180',DRC-1; 180'; concentration 10,46.8466%
same,% inhibition apPOL 180',DRC-1; 180'; concentration 20,85.1856%
same,% inhibition apPOL 180',DRC-1; 180'; concentration 40,79.4059%
same,% inhibition apPOL 180',DRC-1; 180'; concentration 80,96.5379%
same,% inhibition ApPOL 90',"DRC-2, 90', concentration 20 (unit not given)",61%
same,% inhibition Apo pol 5',DRC-2; 5'; concentration 2.5,8%
same,% inhibition Apo pol 5',DRC-2; 5'; concentration 5,18%
same,% inhibition Apo pol 5',DRC-2; 5'; concentration 10,30%
same,% inhibition Apo pol 5',DRC-2; 5'; concentration 20,47%
same,% inhibition Apo pol 5',DRC-2; 5'; concentration 40,46%
same,% inhibition Apo pol 5',DRC-2; 5'; concentration 80,61%
same,% inhibition Apo pol 5',DRC-2; 5'; concentration 80 (unit not given),61%
same,% inhibition Apol 40',DRC-2; 40'; concentration 2.5,10%
same,% inhibition Apol 40',DRC-2; 40'; concentration 5,24%
same,% inhibition Apol 40',DRC-2; 40'; concentration 10,40%
same,% inhibition Apol 40',DRC-2; 40'; concentration 20,60%
same,% inhibition Apol 40',DRC-2; 40'; concentration 40,56%
same,% inhibition Apol 40',DRC-2; 40'; concentration 80,76%
same,% inhibition ApPOL 90',DRC-2; 90'; concentration 2.5,8.47%
same,% inhibition ApPOL 90',DRC-2; 90'; concentration 5,21%
same,% inhibition ApPOL 90',DRC-2; 90'; concentration 10,39%
same,% inhibition ApPOL 90',DRC-2; 90'; concentration 20,61%
same,% inhibition ApPOL 90',DRC-2; 90'; concentration 40,58%
same,% inhibition ApPOL 90',DRC-2; 90'; concentration 80,79%
same,% inhibition apPOL 180',DRC-2; 180'; concentration 2.5,2.49%
same,% inhibition apPOL 180',DRC-2; 180'; concentration 5,14%
same,% inhibition apPOL 180',DRC-2; 180'; concentration 10,31%
same,% inhibition apPOL 180',DRC-2; 180'; concentration 20,57%
same,% inhibition apPOL 180',DRC-2; 180'; concentration 40,55%
same,% inhibition apPOL 180',DRC-2; 180'; concentration 80,81%
same,DNA Pol,"primary screen value of the library well; unit not given; 90 min, 10 µM",96
O=C1c2ccccc2C(=O)c2c1oc1c3c(ccc21)OCN(C1CCCC1)C3 [KU0064306],% inhibition Apo pol 10',DRC-1; concentration 2.5; 10',14.122%
same,% inhibition Apol 90',DRC-1; concentration 2.5; 90',11.9333%
same,% inhibition apPOL 180',DRC-1; concentration 2.5; 180',9.893%
same,% inhibition Apo pol 10',DRC-1; concentration 5; 10',20.6805%
same,% inhibition Apol 90',DRC-1; concentration 5; 90',18.9077%
same,% inhibition apPOL 180',DRC-1; concentration 5; 180',20.5988%
same,% inhibition Apo pol 10',DRC-1; concentration 10; 10',48.1868%
same,% inhibition Apol 90',DRC-1; concentration 10; 90',43.2395%
same,% inhibition apPOL 180',DRC-1; concentration 10; 180',45.5926%
same,% inhibition Apo pol 10',DRC-1; concentration 20; 10',73.389%
same,% inhibition Apol 90',DRC-1; concentration 20; 90',72.2655%
same,% inhibition apPOL 180',DRC-1; concentration 20; 180',74.7554%
same,% inhibition Apo pol 10',DRC-1; concentration 40; 10',87.7037%
same,% inhibition Apol 90',DRC-1; concentration 40; 90',89.2086%
same,% inhibition apPOL 180',DRC-1; concentration 40; 180',90.8162%
same,% inhibition Apo pol 10',DRC-1; concentration 80 (unit not given); 10',89.3485%
same,% inhibition Apol 90',DRC-1; concentration 80; 90',90.7443%
same,% inhibition apPOL 180',DRC-1; concentration 80; 180',92.3974%
same,% inhibition Apo pol 5',DRC-2; 5'; concentration 5,23%
same,% inhibition Apo pol 5',DRC-2; 5'; concentration 40,47%
same,% inhibition Apol 40',DRC-2; 40'; concentration 2.5,17%
same,% inhibition Apol 40',DRC-2; 40'; concentration 80,60%
same,% inhibition ApPOL 90',DRC-2; 90'; concentration 2.5,17%
same,% inhibition ApPOL 90',DRC-2; 90'; concentration 10,47%
same,% inhibition ApPOL 90',DRC-2; 90'; concentration 20,60%
same,% inhibition apPOL 180',DRC-2; 180'; concentration 5,23%
same,% inhibition apPOL 180',DRC-2; 180'; concentration 10,47%
same,% inhibition Apo pol 5',DRC-2; concentration 2.5; 5',16%
same,% inhibition Apol 40',DRC-2; concentration 2.5; 40',17%
same,% inhibition ApPOL 90',DRC-2; concentration 2.5; 90',17%
same,% inhibition apPOL 180',DRC-2; concentration 2.5; 180',15%
same,% inhibition Apo pol 5',DRC-2; concentration 5; 5',23%
same,% inhibition Apol 40',DRC-2; concentration 5; 40',24%
same,% inhibition ApPOL 90',DRC-2; concentration 5; 90',25%
same,% inhibition apPOL 180',DRC-2; concentration 5; 180',23%
same,% inhibition Apo pol 5',DRC-2; concentration 10; 5',42%
same,% inhibition Apol 40',DRC-2; concentration 10; 40',46%
same,% inhibition ApPOL 90',DRC-2; concentration 10; 90',47%
same,% inhibition apPOL 180',DRC-2; concentration 10; 180',47%
same,% inhibition Apo pol 5',DRC-2; concentration 20; 5',43%
same,% inhibition Apol 40',DRC-2; concentration 20; 40',55%
same,% inhibition ApPOL 90',DRC-2; concentration 20; 90',60%
same,% inhibition apPOL 180',DRC-2; concentration 20; 180',63%
same,% inhibition Apo pol 5',DRC-2; concentration 40; 5',47%
same,% inhibition Apol 40',DRC-2; concentration 40; 40',62%
same,% inhibition ApPOL 90',DRC-2; concentration 40; 90',68%
same,% inhibition apPOL 180',DRC-2; concentration 40; 180',72%
same,% inhibition Apo pol 5',DRC-2; concentration 80; 5',44%
same,% inhibition Apol 40',DRC-2; concentration 80; 40',60%
same,% inhibition ApPOL 90',DRC-2; concentration 80; 90',65%
same,% inhibition apPOL 180',DRC-2; concentration 80; 180',70%
same,DNA Pol,"primary screen value of the 186 hits; unit not given; 90 min, 10 µM",61
same,DNA Pol,"primary screen value; head prints only 'DNA Pol'; 90 min, 10 µM",61
Cc1ccccc1C(=O)N1CCc2c(nc3cc(-c4ccccc4)[nH]n3c2=O)C1 [Molecule 41],IC50,"supplemental file 2, sheet IC50 nontoxic compounds; Pf-apPOL",12.4 µM
